This test concerns Bmi-1 protein. The experiment in a line: Sandwich ELISA Assay (Bmi-1 protein level in HT-1080 cells). In kind it is cell-based. The gist of the method: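 HT-1080 cells were treated with compounds (0.5% DMSO final) for 40-48 h at 37 °C. Lysates were assayed by sandwich ELISA: mouse anti-Bmi-1 capture, rabbit anti-Bmi-1 and HRP anti-rabbit detection, TMB read at OD450 (OD570 reference). Levels were quantified against a recombinant GST-Bmi-1 standard curve (125-8000 pg/mL).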

As a reminder, the EC50 is the concentration needed to bring the measured effect to its halfway point. A higher EC50 goes with weaker potency. `Cc1nc2cc(F)ccc2n1-c1cc(N)nc(Nc2ccc(Cl)c(F)c2)n1` [Cpd 192, N^2-(4-chloro-3-fluorophenyl)-6-(5-fluoro-2-methyl-1H-benzimidazol-1-yl)pyrimidine-2,4-diamine] showed a half-maximal effective concentration (EC50) of 100 to 3000 nM. On to `Cc1ccc2nc(C)n(-c3cc(N)nc(Nc4ccc(C(F)(F)F)cc4)n3)c2c1` [Cpd 42, 6-(2,6-dimethyl-1H-benzimidazol-1-yl)-N^2-[4-(trifluoromethyl)phenyl]pyrimidine-2,4-diamine], for which the EC50 fell in the range of 10 to 100 nM. To `Cc1cccc(Nc2nc(N)cc(-n3c(C)nc4ccccc43)n2)c1` [Cpd 127, 6-(2-methyl-1H-benzimidazol-1-yl)-N^2-(3-methylphenyl)pyrimidine-2,4-diamine] belongs 100 to 3000 nM; to `Nc1cc(-n2c(C3CC3)nc3ccc(Cl)cc32)nc(Nc2ccc(OC(F)F)cc2)n1` [Cpd 93, 6-(6-chloro-2-cyclopropyl-1H-benzimidazol-1-yl)-N^2-[4-(difluoromethoxy)phenyl]pyrimidine-2,4-diamine], 10 to 100 nM; to `Cc1nc2ccc(Cl)cc2n1-c1cc(N)nc(Nc2ccc(C(F)(F)F)cc2)n1` [Cpd 45, 6-(6-chloro-2-methyl-1H-benzimidazol-1-yl)-N^2-[4-(trifluoromethyl)phenyl]pyrimidine-2,4-diamine], 10 to 100 nM. Regarding `Cc1ccc(Nc2nc(N)cc(-n3c(C)nc4cc(F)c(F)cc43)n2)cc1` [Cpd 181, 6-(5,6-difluoro-2-methyl-1H-benzimidazol-1-yl)-N^2-(4-methylphenyl)pyrimidine-2,4-diamine], the EC50 is 1 to 10 nM. Molecule `Cc1nc2ccccc2n1-c1cc(N)nc(Nc2ccc(C(F)(F)F)nc2)n1` [Cpd 37, 6-(2-methyl-1H-benzimidazol-1-yl)-N^2-[6-(trifluoromethyl)pyridin-3-yl]pyrimidine-2,4-diamine] returned a 50% effective concentration (EC50) of 10 to 100 nM. Molecule `Nc1cc(-n2c(C(F)F)nc3ccc(F)cc32)nc(Nc2ccc(OC(F)F)cc2)n1` [Cpd 72, N^2-[4-(difluoromethoxy)phenyl]-6-[2-(difluoromethyl)-6-fluoro-1H-benzimidazol-1-yl]pyrimidine-2,4-diamine] registered a concentration giving a half-maximal response (EC50) of 10 to 100 nM. Turning to `CCc1nc2ccccc2n1-c1nc(Nc2ccc(C(F)(F)F)cc2)nc(N)c1F` [Cpd 57, 6-(2-ethyl-1H-benzimidazol-1-yl)-5-fluoro-N^2-[4-(trifluoromethyl)phenyl]pyrimidine-2,4-diamine], the EC50 lay within 10 to 100 nM. To `Nc1cc(-c2c(CO)nc3ccccn23)nc(Nc2ccc(C(F)(F)F)cc2)n1` [Cpd 28, [3-(6-amino-2-{[4-(trifluoromethyl)phenyl]amino}pyrimidin-4-yl)imidazo[1,2-a]pyridin-2-yl]methanol] belongs 1 to 10 nM; to `Cc1ccc(Nc2nc(N)c(F)c(-n3c(C)nc4ccccc43)n2)cc1` [Cpd 178, 5-fluoro-6-(2-methyl-1H-benzimidazol-1-yl)-N^2-(4-methylphenyl)pyrimidine-2,4-diamine], 1 to 10 nM; to `COc1ccc(Nc2nc(N)cc(-n3c(C)nc4cc(F)c(F)cc43)n2)cc1` [Cpd 180, 6-(5,6-difluoro-2-methyl-1H-benzimidazol-1-yl)-N^2-(4-methoxyphenyl)pyrimidine-2,4-diamine], 1 to 10 nM.

In turn, `Cc1nc2ccccc2n1-c1cc(Cl)nc(Nc2ccc(OC(F)F)c(F)c2)n1` [Cpd 30, 4-chloro-N-[4-(difluoromethoxy)-3-fluorophenyl]-6-(2-methyl-1H-benzimidazol-1-yl)pyrimidin-2-amine] showed a 50% effective concentration (EC50) of 100 to 3000 nM. For `Cc1nc2ccccc2n1-c1cc(N)nc(Nc2ccc(Cl)cc2)n1` [Cpd 177, N^2-(4-chlorophenyl)-6-(2-methyl-1H-benzimidazol-1-yl)pyrimidine-2,4-diamine], the EC50 is 10 to 100 nM. `CCc1nc2ccc(Cl)cc2n1-c1cc(N)nc(Nc2ccc(C(F)(F)F)cc2)n1` [Cpd 97, 6-(6-chloro-2-ethyl-1H-benzimidazol-1-yl)-N^2-[4-(trifluoromethyl)phenyl]pyrimidine-2,4-diamine] gave an EC50 of 10 to 100 nM.

Turning to `Nc1cc(-c2c(CO)nc3ccc(F)cn23)nc(Nc2ccc(C(F)(F)F)cc2)n1` [Cpd 29, [3-(6-amino-2-{[4-(trifluoromethyl)phenyl]amino}pyrimidin-4-yl)-6-fluoroimidazo[1,2-a]pyridin-2-yl]methanol], the EC50 lay within 10 to 100 nM. Take `CCc1nc2ccc(F)cc2n1-c1cc(N)nc(Nc2ccc(C(F)(F)F)cc2)n1` [Cpd 26, 6-(2-ethyl-6-fluoro-1H-benzimidazol-1-yl)-N^2-[4-(trifluoromethyl)phenyl]pyrimidine-2,4-diamine]: the half-maximal effective concentration (EC50) lay in the range of 10 to 100 nM.

`Cc1nc2ccc(Br)cc2n1-c1cc(N)nc(Nc2ccc(C(F)(F)F)cc2)n1` [Cpd 41, 6-(6-bromo-2-methyl-1H-benzimidazol-1-yl)-N^2-[4-(trifluoromethyl)phenyl]pyrimidine-2,4-diamine] returned a concentration giving a half-maximal response (EC50) of 10 to 100 nM. Molecule `CCc1nc2ncc(Cl)cc2n1-c1cc(N)nc(Nc2ccc(C(F)(F)F)cc2)n1` [Cpd 32, 6-(6-chloro-2-ethyl-1H-imidazo[4,5-b]pyridin-1-yl)-N^2-[4-(trifluoromethyl)phenyl]pyrimidine-2,4-diamine] yielded a 50% effective concentration (EC50) of 10 to 100 nM. `Cc1nc2ccc(F)cc2n1-c1cc(Cl)nc(Nc2ccc(C(F)(F)F)nc2)n1` [Cpd 38, 4-chloro-6-(6-fluoro-2-methyl-1H-benzimidazol-1-yl)-N-[6-(trifluoromethyl)pyridin-3-yl]pyrimidin-2-amine] showed a half-maximal effective concentration (EC50) of 100 to 3000 nM. Then `CCc1nc2cc(F)c(F)cc2n1-c1cc(N)nc(Nc2ccc(C(F)(F)F)cc2)n1` [Cpd 65, 6-(2-ethyl-5,6-difluoro-1H-benzimidazol-1-yl)-N^2-[4-(trifluoromethyl)phenyl]pyrimidine-2,4-diamine], with 10 to 100 nM. The molecule `N#Cc1cc(-n2c(C3CC3)nc3cc(F)c(F)cc32)nc(Nc2ccc(C(F)(F)F)cc2)n1` [Cpd 67, 6-(2-cyclopropyl-5,6-difluoro-1H-benzimidazol-1-yl)-2-{[4-(trifluoromethyl)phenyl]amino}pyrimidine-4-carbonitrile] returned an EC50 of 100 to 3000 nM. To `Cc1nc2cc(F)c(F)cc2n1-c1cc(Cl)nc(Nc2ccc(C(F)(F)F)c(F)c2)n1` [Cpd 19, 4-chloro-6-(5,6-difluoro-2-methyl-1H-benzimidazol-1-yl)-N-[3-fluoro-4-(trifluoromethyl)phenyl]pyrimidin-2-amine] belongs 100 to 3000 nM; to `Cc1ccc2nc(C)n(-c3cc(N)nc(Nc4ccc(OC(F)F)cc4)n3)c2c1` [Cpd 54, N^2-[4-(difluoromethoxy)phenyl]-6-(2,6-dimethyl-1H-benzimidazol-1-yl)pyrimidine-2,4-diamine], 1 to 10 nM; to `CCc1nc2cc(Cl)ccc2n1-c1cc(N)nc(Nc2ccc(C(F)(F)F)cc2)n1` [Cpd 96, 6-(5-chloro-2-ethyl-1H-benzimidazol-1-yl)-N^2-[4-(trifluoromethyl)phenyl]pyrimidine-2,4-diamine], 100 to 3000 nM.

Consider `Cc1noc(C)c1-c1cc(N)nc(Nc2ccc(Cl)cc2)n1` [Cpd 198, N^2-(4-chlorophenyl)-6-(3,5-dimethylisoxazol-4-yl)pyrimidine-2,4-diamine], for which the EC50 was 100 to 3000 nM. In the case of `Cc1nc2ccccc2n1-c1cc(NO)nc(Nc2ccc(C(F)(F)F)cc2)n1` [Cpd 22, N^4-hydroxy-6-(2-methyl-1H-benzimidazol-1-yl)-N^2-[4-(trifluoromethyl)phenyl]pyrimidine-2,4-diamine], the EC50 was in the range of 10 to 100 nM.
